Values joined by “and” are separate entries in the source; they are usually repeats but may differ in a detail not shown here. Equal values may be shown once.
Details: 343.16 K, Liquid, Vibrating tube method

CCCCCC(=O)OCC(COC(=O)CCCCC)(COC(=O)CCCCC)COC(=O)CCCCC [pentaerythritol tetrahexanoate]
Details	mass density
354.4 kPa	957.4 kg/m3 and 957.3 kg/m3
355.3 kPa	957.3 kg/m3
355.8 kPa	957.3 kg/m3
356.3 kPa	957.3 kg/m3
356.7 kPa	957.4 kg/m3
357 kPa	957.4 kg/m3
357.2 kPa	957.4 kg/m3
357.5 kPa	957.4 kg/m3
357.9 kPa	957.4 kg/m3
358.6 kPa	957.4 kg/m3
359.5 kPa	957.4 kg/m3
360.3 kPa	957.4 kg/m3
360.5 kPa	957.3 kg/m3
360.7 kPa	957.3 kg/m3
361.4 kPa	957.3 kg/m3
361.6 kPa	957.4 kg/m3
361.9 kPa	957.3 kg/m3
362.3 kPa	957.5 kg/m3
362.6 kPa	957.5 kg/m3
362.9 kPa	957.4 kg/m3
365.9 kPa	957.3 kg/m3 and 957.4 kg/m3
366.4 kPa	957.3 kg/m3
366.8 kPa	957.4 kg/m3
367.3 kPa	957.3 kg/m3
367.6 kPa	957.3 kg/m3
368 kPa	957.5 kg/m3
368.1 kPa	957.3 kg/m3
368.5 kPa	957.4 kg/m3
370.4 kPa	957.4 kg/m3
370.8 kPa	957.3 kg/m3
371.3 kPa	957.5 kg/m3
371.6 kPa	957.4 kg/m3
372 kPa	957.4 kg/m3
372.3 kPa	957.4 kg/m3
379.4 kPa	957.5 kg/m3
379.8 kPa	957.4 kg/m3
380.3 kPa	957.4 kg/m3
405.3 kPa	957.4 kg/m3
406 kPa	957.4 kg/m3
406.2 kPa	957.3 kg/m3
406.4 kPa	957.4 kg/m3
406.9 kPa	957.4 kg/m3
410.7 kPa	957.3 kg/m3
411.1 kPa	957.4 kg/m3
411.8 kPa	957.4 kg/m3
412.5 kPa	957.5 kg/m3
415.9 kPa	957.4 kg/m3
416.3 kPa	957.4 kg/m3
416.6 kPa	957.3 kg/m3
417.3 kPa	957.2 kg/m3
417.7 kPa	957.3 kg/m3
421.8 kPa	957.4 kg/m3
422.4 kPa	957.5 kg/m3
422.9 kPa	957.5 kg/m3
423.1 kPa	957.4 kg/m3
495.2 kPa	957.5 kg/m3
498.6 kPa	957.4 kg/m3
501.8 kPa	957.5 kg/m3
506.1 kPa	957.5 kg/m3
509.6 kPa	957.5 kg/m3
513.1 kPa	957.4 kg/m3
517.4 kPa	957.5 kg/m3
521.2 kPa	957.5 kg/m3
541.9 kPa	957.6 kg/m3
598.9 kPa	957.5 kg/m3
1360.7 kPa	958.2 kg/m3
1373.7 kPa	958.2 kg/m3
1386.7 kPa	958 kg/m3
1402 kPa	958.1 kg/m3
1499.4 kPa	958.2 kg/m3
1527.2 kPa	958.3 kg/m3
1543.9 kPa	958.2 kg/m3
1635.2 kPa	958.4 kg/m3
1649.9 kPa	958.4 kg/m3
1664.3 kPa	958.4 kg/m3
1682.1 kPa	958.4 kg/m3
2922.7 kPa	959.2 kg/m3
2945.6 kPa	959.4 kg/m3
3846.3 kPa	960.1 kg/m3
3871.7 kPa	960 kg/m3
3901.2 kPa	960.1 kg/m3
3926.1 kPa	960 kg/m3
3956.3 kPa	960.1 kg/m3
3981.7 kPa	960.2 kg/m3
9203.5 kPa	964.1 kg/m3
9234 kPa	964.1 kg/m3
9270 kPa	964.2 kg/m3
9300.6 kPa	964.1 kg/m3
9331.6 kPa	964.1 kg/m3
9596.7 kPa	964.4 kg/m3
9628.1 kPa	964.4 kg/m3
9666.2 kPa	964.4 kg/m3
9698 kPa	964.4 kg/m3
9736.5 kPa	964.4 kg/m3
9768.5 kPa	964.5 kg/m3
9839 kPa	964.5 kg/m3
9871.9 kPa	964.6 kg/m3
9905.6 kPa	964.5 kg/m3
9938.9 kPa	964.7 kg/m3
9971.6 kPa	964.5 kg/m3
10011 kPa	964.7 kg/m3
10044 kPa	964.7 kg/m3
10084 kPa	964.7 kg/m3
10117 kPa	964.9 kg/m3
10151 kPa	964.7 kg/m3
10192 kPa	965 kg/m3
10225 kPa	964.9 kg/m3
10259 kPa	964.9 kg/m3
10294 kPa	964.9 kg/m3
10335 kPa	964.8 kg/m3
10369 kPa	965 kg/m3
10404 kPa	965 kg/m3
10446 kPa	965 kg/m3
10481 kPa	964.9 kg/m3
10516 kPa	964.9 kg/m3
10551 kPa	965 kg/m3
10593 kPa	965.2 kg/m3
10628 kPa	965.1 kg/m3
10670 kPa	965.1 kg/m3
10705 kPa	965.2 kg/m3
10741 kPa	965.2 kg/m3
10777 kPa	965.2 kg/m3
10820 kPa	965.2 kg/m3
10856 kPa	965.5 kg/m3
10893 kPa	965.4 kg/m3
10929 kPa	965.3 kg/m3
10972 kPa	965.3 kg/m3
12411 kPa	966.4 kg/m3
12434 kPa	966.4 kg/m3
12457 kPa	966.5 kg/m3
12484 kPa	966.4 kg/m3
12507 kPa	966.5 kg/m3
12530 kPa	966.5 kg/m3
12559 kPa	966.6 kg/m3
12577 kPa	966.5 kg/m3
12604 kPa	966.5 kg/m3
12626 kPa	966.5 kg/m3
12653 kPa	966.7 kg/m3
12675 kPa	966.5 kg/m3
12697 kPa	966.5 kg/m3
12722 kPa	966.6 kg/m3
12741 kPa	966.6 kg/m3
12760 kPa	966.7 kg/m3
12778 kPa	966.8 kg/m3
12793 kPa	966.6 kg/m3

— the NIST ThermoML archive (doi:10.1021/je060271a)
